Molecular target: MALT1-GS-Ub (6-His-hMALT-1 residues 339-715 fused to ubiquitin) (Homo sapiens, UniProt Q9UDY8);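 also: in vitro MALT1 protease assay: enzyme preincubated with compound 30 min at room temperature, then cleavage of fluorogenic Ac-LVSR-AMC substrate (100 µM) followed by fluorescence every 15 min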
Assay: biochemical
Settings: not given

Chain of MALT1-GS-Ub (6-His-hMALT-1 residues 339-715 fused to ubiquitin) (Q9UDY8 with tags, fused parts or gaps limits assumed): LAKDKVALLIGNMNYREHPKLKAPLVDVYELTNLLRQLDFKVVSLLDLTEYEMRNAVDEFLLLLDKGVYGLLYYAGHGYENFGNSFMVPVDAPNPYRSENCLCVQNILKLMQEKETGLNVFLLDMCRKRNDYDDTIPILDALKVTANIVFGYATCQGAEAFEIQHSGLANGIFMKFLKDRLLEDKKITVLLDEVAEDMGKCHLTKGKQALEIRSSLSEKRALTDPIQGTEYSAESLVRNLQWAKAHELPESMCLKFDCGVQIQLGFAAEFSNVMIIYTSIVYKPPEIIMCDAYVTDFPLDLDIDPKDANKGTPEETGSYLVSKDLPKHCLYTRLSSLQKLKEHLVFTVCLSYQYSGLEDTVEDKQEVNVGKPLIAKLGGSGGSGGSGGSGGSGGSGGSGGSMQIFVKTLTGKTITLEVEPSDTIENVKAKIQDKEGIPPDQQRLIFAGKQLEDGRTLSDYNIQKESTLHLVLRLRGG

SMILES | IC50
CC(=O)N1CC(C)(C(=O)N(C)[C@@H](c2ccc(NC3Cc4ccccc4C3(C)C)cc2)C(F)(F)F)C1 (single isomer, unassigned) [Example 41] | 220 nM
CN(C(=O)CN1CCCC1=O)[C@@H](c1ccc(NC2Cc3ccccc3C2(C)C)cc1)C(F)(F)F (single isomer, unassigned) [Example 46] | 250 nM
CN(C(=O)C1CCS(=O)(=O)CC1)[C@@H](c1ccc(NC2Cc3ccc(Cl)cc3C2)cc1)C(F)(F)F (single isomer, unassigned) [Example 56] | 150 nM
CC(=O)N1CC(OC(=O)N(C)[C@@H](c2ccc(NC3Cc4ccccc4C3(C)C)cc2)C(F)(F)F)C1 (single isomer, unassigned) [Example 57] | 160 nM
C[C@H](c1ccc(NC2Cc3ccccc3C2(C)C)cc1)N(C)C(=O)C1CCS(=O)(=O)CC1 (single isomer, unassigned) [Example 63] | 390 nM
CNS(=O)(=O)CCCC(=O)N(C)[C@@H](c1ccc(NC2Cc3ccccc3C2(C)C)cc1)C(F)(F)F (single isomer, unassigned) [Example 65] | 190 nM
CN(C(=O)CN1CC(=O)NC1=O)[C@@H](c1ccc(NC2Cc3ccccc3C2(C)C)cc1)C(F)(F)F (single isomer, unassigned) [Example 66] | 220 nM
CN(C(=O)CN1CC(=O)NC1=O)[C@@H](c1ccc(NC2Cc3ccccc3C2(C)C)cc1)C(F)(F)F (single isomer, unassigned) [Example 67] | 450 nM

More lines, in order of falling IC50, values ahead:

IC50 | SMILES
520 nM | CN(C(=O)C1CCS(=O)(=O)CC1)[C@@H](c1ccc(NC2Cc3ccc(Cl)cc3C2)cc1)C(F)(F)F (single isomer, unassigned) [Example 55]
240 nM | CN(C(=O)CN1CCCC1=O)[C@@H](c1ccc(NC2Cc3ccccc3C2(C)C)cc1)C(F)(F)F (single isomer, unassigned) [Example 45]
230 nM | CC(=O)NCC(=O)N(C)[C@@H](c1ccc(NC2Cc3ccccc3C2(C)C)cc1)C(F)(F)F (single isomer, unassigned) [Example 40]
190 nM | CC(=O)N1CC(OC(=O)N(C)[C@@H](c2ccc(NC3Cc4ccccc4C3(C)C)cc2)C(F)(F)F)C1 (single isomer, unassigned) [Example 58]
180 nM | CC(=O)N1CC(F)(C(=O)N(C)[C@@H](c2ccc(NC3Cc4ccccc4C3(C)C)cc2)C(F)(F)F)C1 (single isomer, unassigned) [Example 44]
170 nM | CN(C(=O)CCN1CCCC1=O)[C@@H](c1ccc(NC2Cc3ccccc3C2(C)C)cc1)C(F)(F)F (single isomer, unassigned) [Example 47]
160 nM | CC(=O)N1CC(C)(C(=O)N(C)[C@@H](c2ccc(NC3Cc4ccccc4C3(C)C)cc2)C(F)(F)F)C1 (single isomer, unassigned) [Example 42]
150 nM | CC(=O)N1CC(F)(C(=O)N(C)[C@@H](c2ccc(NC3Cc4ccccc4C3(C)C)cc2)C(F)(F)F)C1 (single isomer, unassigned) [Example 43]
150 nM | CNS(=O)(=O)CCCC(=O)N(C)[C@@H](c1ccc(NC2Cc3ccccc3C2(C)C)cc1)C(F)(F)F (single isomer, unassigned) [Example 64]
140 nM | CN(C(=O)CCN1CCCC1=O)[C@@H](c1ccc(NC2Cc3ccccc3C2(C)C)cc1)C(F)(F)F (single isomer, unassigned) [Example 48]

System: IL-2 release from stimulated Jurkat cells
Assay: Human IL-2 Release Phenotypic Assay (Assay 3)
Assay type: cell-based
Settings: Homo sapiens, Jurkat, 48 h, Jurkat cells (clone E6-1), 200 ng/mL PMA + 300 ng/mL ionomycin, IL-2 by ELISA
Procedure, shortened: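 IC50 values were fitted by 4-parameter non-linear regression to IL-2 release from Jurkat E6-1 cells. Those cells were stimulated for 48 h with PMA (200 ng/mL) plus ionomycin (300 ng/mL) after a 30-min compound pre-incubation at half-log doses in 0.5% DMSO. Cells had been plated at 50 000/well overnight at 37° C.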

IC50 | SMILES
1040 nM | CC(=O)N1CC(C)(C(=O)N(C)[C@@H](c2ccc(NC3Cc4ccccc4C3(C)C)cc2)C(F)(F)F)C1 (single isomer, unassigned) [Example 41]
730 nM | CN(C(=O)CN1CCCC1=O)[C@@H](c1ccc(NC2Cc3ccccc3C2(C)C)cc1)C(F)(F)F (single isomer, unassigned) [Example 45]
2550 nM | C[C@H](c1ccc(NC2Cc3ccccc3C2(C)C)cc1)N(C)C(=O)C1CCS(=O)(=O)CC1 (single isomer, unassigned) [Example 63]

Same assay, conditions: Jurkat cells (clone E6-1), 200 ng/mL PMA + 300 ng/mL ionomycin, 48 hours, IL-2 by ELISA

SMILES | IC50
CN(C(=O)CN1CCCC1=O)[C@@H](c1ccc(NC2Cc3ccccc3C2(C)C)cc1)C(F)(F)F (single isomer, unassigned) [Example 46] | 440 nM
CN(C(=O)C1CCS(=O)(=O)CC1)[C@@H](c1ccc(NC2Cc3ccc(Cl)cc3C2)cc1)C(F)(F)F (single isomer, unassigned) [Example 56] | 93 nM
CC(=O)N1CC(OC(=O)N(C)[C@@H](c2ccc(NC3Cc4ccccc4C3(C)C)cc2)C(F)(F)F)C1 (single isomer, unassigned) [Example 57] | 3690 nM
CNS(=O)(=O)CCCC(=O)N(C)[C@@H](c1ccc(NC2Cc3ccccc3C2(C)C)cc1)C(F)(F)F (single isomer, unassigned) [Example 65] | 2240 nM
CN(C(=O)CN1CC(=O)NC1=O)[C@@H](c1ccc(NC2Cc3ccccc3C2(C)C)cc1)C(F)(F)F (single isomer, unassigned) [Example 66] | 590 nM
CN(C(=O)CN1CC(=O)NC1=O)[C@@H](c1ccc(NC2Cc3ccccc3C2(C)C)cc1)C(F)(F)F (single isomer, unassigned) [Example 67] | 5970 nM

Now from value to molecule:

IC50 | SMILES
4570 nM | CN(C(=O)C1CCS(=O)(=O)CC1)[C@@H](c1ccc(NC2Cc3ccc(Cl)cc3C2)cc1)C(F)(F)F (single isomer, unassigned) [Example 55]
1350 nM | CC(=O)NCC(=O)N(C)[C@@H](c1ccc(NC2Cc3ccccc3C2(C)C)cc1)C(F)(F)F (single isomer, unassigned) [Example 40]
1020 nM | CC(=O)N1CC(OC(=O)N(C)[C@@H](c2ccc(NC3Cc4ccccc4C3(C)C)cc2)C(F)(F)F)C1 (single isomer, unassigned) [Example 58]
770 nM | CC(=O)N1CC(F)(C(=O)N(C)[C@@H](c2ccc(NC3Cc4ccccc4C3(C)C)cc2)C(F)(F)F)C1 (single isomer, unassigned) [Example 44]
2350 nM | CN(C(=O)CCN1CCCC1=O)[C@@H](c1ccc(NC2Cc3ccccc3C2(C)C)cc1)C(F)(F)F (single isomer, unassigned) [Example 47]
1600 nM | CC(=O)N1CC(C)(C(=O)N(C)[C@@H](c2ccc(NC3Cc4ccccc4C3(C)C)cc2)C(F)(F)F)C1 (single isomer, unassigned) [Example 42]
4040 nM | CC(=O)N1CC(F)(C(=O)N(C)[C@@H](c2ccc(NC3Cc4ccccc4C3(C)C)cc2)C(F)(F)F)C1 (single isomer, unassigned) [Example 43]
290 nM | CNS(=O)(=O)CCCC(=O)N(C)[C@@H](c1ccc(NC2Cc3ccccc3C2(C)C)cc1)C(F)(F)F (single isomer, unassigned) [Example 64]
1160 nM | CN(C(=O)CCN1CCCC1=O)[C@@H](c1ccc(NC2Cc3ccccc3C2(C)C)cc1)C(F)(F)F (single isomer, unassigned) [Example 48]

Molecular target: T1, FL hMALT1 enzyme (Homo sapiens, UniProt Q9UDY8);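 also: Cell-free protease assay: enzyme preincubated with compound 30 min at room temperature, then cleavage of fluorogenic Ac-LVSR-AMC substrate (100 µM) tracked by fluorescence (ex 360/em 460 nm)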
T1 sequence (Q9UDY8 1-824): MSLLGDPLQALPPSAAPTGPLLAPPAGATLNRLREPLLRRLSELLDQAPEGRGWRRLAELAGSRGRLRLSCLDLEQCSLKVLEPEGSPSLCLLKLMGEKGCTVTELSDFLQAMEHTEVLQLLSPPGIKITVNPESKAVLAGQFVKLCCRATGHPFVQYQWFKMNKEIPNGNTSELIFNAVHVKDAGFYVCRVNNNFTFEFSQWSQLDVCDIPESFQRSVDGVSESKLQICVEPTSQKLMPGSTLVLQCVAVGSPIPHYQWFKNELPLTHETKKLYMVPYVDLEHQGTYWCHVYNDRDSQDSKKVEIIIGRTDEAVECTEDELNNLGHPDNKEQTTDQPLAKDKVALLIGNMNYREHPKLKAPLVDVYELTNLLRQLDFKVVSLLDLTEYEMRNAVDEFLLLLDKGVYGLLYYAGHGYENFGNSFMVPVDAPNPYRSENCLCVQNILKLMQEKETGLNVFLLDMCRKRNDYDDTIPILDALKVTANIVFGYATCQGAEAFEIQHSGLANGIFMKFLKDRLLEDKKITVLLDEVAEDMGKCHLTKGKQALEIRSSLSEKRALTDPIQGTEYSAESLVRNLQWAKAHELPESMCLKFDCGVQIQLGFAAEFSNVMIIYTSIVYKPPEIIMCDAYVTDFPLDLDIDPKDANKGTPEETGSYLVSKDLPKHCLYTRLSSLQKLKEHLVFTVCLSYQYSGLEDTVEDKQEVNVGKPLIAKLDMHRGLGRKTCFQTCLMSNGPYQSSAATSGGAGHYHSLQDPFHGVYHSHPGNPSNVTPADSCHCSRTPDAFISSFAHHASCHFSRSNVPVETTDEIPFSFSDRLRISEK
Assay: biochemical
Settings: not given

SMILES | IC50
CC(=O)N1CC(C)(C(=O)N(C)[C@@H](c2ccc(NC3Cc4ccccc4C3(C)C)cc2)C(F)(F)F)C1 (single isomer, unassigned) [Example 41] | 19 nM
CN(C(=O)CN1CCCC1=O)[C@@H](c1ccc(NC2Cc3ccccc3C2(C)C)cc1)C(F)(F)F (single isomer, unassigned) [Example 46] | 66 nM
CN(C(=O)C1CCS(=O)(=O)CC1)[C@@H](c1ccc(NC2Cc3ccc(Cl)cc3C2)cc1)C(F)(F)F (single isomer, unassigned) [Example 56] | 14 nM
CC(=O)N1CC(OC(=O)N(C)[C@@H](c2ccc(NC3Cc4ccccc4C3(C)C)cc2)C(F)(F)F)C1 (single isomer, unassigned) [Example 57] | 91 nM
C[C@H](c1ccc(NC2Cc3ccccc3C2(C)C)cc1)N(C)C(=O)C1CCS(=O)(=O)CC1 (single isomer, unassigned) [Example 63] | 200 nM
CNS(=O)(=O)CCCC(=O)N(C)[C@@H](c1ccc(NC2Cc3ccccc3C2(C)C)cc1)C(F)(F)F (single isomer, unassigned) [Example 65] | 45 nM
CN(C(=O)CN1CC(=O)NC1=O)[C@@H](c1ccc(NC2Cc3ccccc3C2(C)C)cc1)C(F)(F)F (single isomer, unassigned) [Example 66] | 20 nM
CN(C(=O)CN1CC(=O)NC1=O)[C@@H](c1ccc(NC2Cc3ccccc3C2(C)C)cc1)C(F)(F)F (single isomer, unassigned) [Example 67] | 78 nM

The remaining lines, values ahead:

IC50 | SMILES
220 nM | CN(C(=O)C1CCS(=O)(=O)CC1)[C@@H](c1ccc(NC2Cc3ccc(Cl)cc3C2)cc1)C(F)(F)F (single isomer, unassigned) [Example 55]
180 nM | CN(C(=O)CN1CCCC1=O)[C@@H](c1ccc(NC2Cc3ccccc3C2(C)C)cc1)C(F)(F)F (single isomer, unassigned) [Example 45]
77 nM | CC(=O)NCC(=O)N(C)[C@@H](c1ccc(NC2Cc3ccccc3C2(C)C)cc1)C(F)(F)F (single isomer, unassigned) [Example 40]
38 nM | CC(=O)N1CC(OC(=O)N(C)[C@@H](c2ccc(NC3Cc4ccccc4C3(C)C)cc2)C(F)(F)F)C1 (single isomer, unassigned) [Example 58]
21 nM | CC(=O)N1CC(F)(C(=O)N(C)[C@@H](c2ccc(NC3Cc4ccccc4C3(C)C)cc2)C(F)(F)F)C1 (single isomer, unassigned) [Example 44]
110 nM | CN(C(=O)CCN1CCCC1=O)[C@@H](c1ccc(NC2Cc3ccccc3C2(C)C)cc1)C(F)(F)F (single isomer, unassigned) [Example 47]
35 nM | CC(=O)N1CC(C)(C(=O)N(C)[C@@H](c2ccc(NC3Cc4ccccc4C3(C)C)cc2)C(F)(F)F)C1 (single isomer, unassigned) [Example 42]
62 nM | CC(=O)N1CC(F)(C(=O)N(C)[C@@H](c2ccc(NC3Cc4ccccc4C3(C)C)cc2)C(F)(F)F)C1 (single isomer, unassigned) [Example 43]
12 nM | CNS(=O)(=O)CCCC(=O)N(C)[C@@H](c1ccc(NC2Cc3ccccc3C2(C)C)cc1)C(F)(F)F (single isomer, unassigned) [Example 64]
17 nM | CN(C(=O)CCN1CCCC1=O)[C@@H](c1ccc(NC2Cc3ccccc3C2(C)C)cc1)C(F)(F)F (single isomer, unassigned) [Example 48]

— patent publication US20260184687A1, “DIHYDROINDENE DERIVATIVES AS MALT1 INHIBITORS” (C4X Discovery Limited, priority 2022, published 2026)
